# According to paper PMC6272893, “NO-Releasing Enmein-Type Diterpenoid Derivatives with Selective Antiproliferative Activity and Effects on Apoptosis-Related Proteins” (Molecules, 2016):
# Experiments:
# Bel-7402 cells [1] = assay: MTT antiproliferative assay, Bel-7402; format: cell-based, human
# Experimental: [The source words this procedure for another cell line and reports this cell line under the same test.] (§1) Cytotoxicity assay in vitro was employed by the MTT assay following the methodology described previously, which was performed in flat-bottomed 96-well plates. In short, exponentially growing MGC-803 cells at the log phase were added to each well at a density of 5 × 10^3 per well, then treated with serial dilutions of the compounds in three replicates at various concentrations (0.039–40 µg/mL). After 72 h, 20 µL of MTT solution (5 mg/mL) per well was added to each cultured medium. Then, DMSO was added to each well (150 µL/well). After 10 min at room temperature, the absorbance (OD) was read on a microplate reader at the wavelength of 490 nm (BIO-RAD Instruments Inc. 550, Hercules, CA, USA). In these experiments, taxol was used as the positive reference with the concentration of 10 µg/mL.
# L-02 normal liver cells = assay: MTT antiproliferative assay, L-02; format: cell-based
# Experimental: [The source words this procedure for another cell line and reports this cell line under the same test.] as §1
# K562 cells = assay: MTT antiproliferative assay, K562; format: cell-based, human
# Experimental: [The source words this procedure for another cell line and reports this cell line under the same test.] as §1
# MGC-803 cells = assay: MTT antiproliferative assay, MGC-803; format: cell-based, human
# Experimental: as §1
# CaEs-17 cells = assay: MTT antiproliferative assay, CaEs-17; format: cell-based, human
# Experimental: [The source words this procedure for another cell line and reports this cell line under the same test.] as §1
# Bel-7402 cells [2] = assay: Cell cycle study by PI flow cytometry; format: cell-based, human; conditions: for G2 phase cells: control 20.72%; for cells at the S phase: control 34.65%
# Experimental: Progression through the cell cycle was assessed by flow cytometry DNA determination with PI. Bel-7402 cells were plated in 6-well plates (5.0 × 10^3 cells/well) and incubated at 37 °C for 24 h. Exponentially growing cells were then incubated with tested compound at a certain concentration in triplicate. Untreated cells (control) or cells treated with the solvent (DMSO) of the compound were included. After 48 h treatment, cells were centrifuged and fixed in 70% ethanol at 4 °C overnight and subsequently resuspended in PBS containing 100 μL RNase A and 400 μL PI. Cellular DNA content, for cell cycle distribution analysis, was measured using a flow cytometer (FACS Calibur Becton-Dickinson, Franklin Lake, NJ, USA).
# Figure 4 Influence of the cell cycle arrest of S phase by 10f in Bel-7402 cells: Bel-7402 cells were incubated with the indicated concentrations of 10f for 24 h and the cells were stained with propidium iodide (PI). Cellular DNA content, for cell cycle distribution analysis, was measured using a flow cytometer. The diagrams show the distribution of the cells according to their DNA content. The inserts give the percentages of cells in different cell cycle phases. TEXT PRINTED IN THE PICTURE: Control group: G1: 44.64%; S: 34.65%; G2: 20.72% | no label printed: G1: 42.41% (1 μM); S: 40.27% (1 μM); G2: 17.32% (1 μM); G1: 43.10% (1.5 μM); S: 48.11% (1.5 μM); G2: 8.79% (1.5 μM); G1: 40.63% (2 μM); S: 53.34% (2 μM); G2: 6.02% (2 μM) DOUBTS OF THE COPYIST ABOUT THIS PICTURE: The picture prints no label for the treated substance, only the concentrations 1 μM, 1.5 μM and 2 μM, so the substance is left blank and the concentrations are given as conditions. / Control group is an untreated reference, not a substance. It is listed because the picture prints its values under that label.
# Bel-7402 cells [3] = assay: Annexin V-FITC/PI apoptosis assay; format: cell-based, human; conditions: 24 h, control 8.27%
# Experimental: The Bel-7402 cells were seeded in 6-well plates to grow overnight, and then treated with or without 10f at indicated concentrations in triplicate for 24 h. Cells were then washed twice in PBS and resuspended in annexin V binding buffer. Annexin V-FITC was then added and the mixture was incubated for 15 min under dark conditions at 25 °C. PI was added just prior to acquisition. Apoptosis was analyzed using annexin V and PI double-staining by flow cytometry according to the manufacturer’s instructions in order to detect apoptotic cells.
# Figure 5 Apoptosis in Bel-7402 cells by treatment with 10f: Bel-7402 cells were incubated with different concentrations of 10f for 24 h and the cells were stained with annexin V-FITC and PI, followed by flow cytometry analysis. TEXT PRINTED IN THE PICTURE: Control: 2.67%; 2.37%; 89.06%; 5.90% | no label printed: 2.07% (1.0 μM); 4.15% (1.0 μM); 74.53% (1.0 μM); 19.26% (1.0 μM); 5.69% (1.5 μM); 15.20% (1.5 μM); 55.99% (1.5 μM); 23.12% (1.5 μM); 3.33% (2.0 μM); 26.65% (2.0 μM); 37.87% (2.0 μM); 32.15% (2.0 μM) DOUBTS OF THE COPYIST ABOUT THIS PICTURE: The picture prints no compound label for the treated plots, only the concentrations 1.0 μM, 1.5 μM and 2.0 μM, so the substance is left empty. / The picture prints no measure or quadrant name for the percentages. Each plot's values are given in the order upper left, upper right, lower left, lower right.
# Bel-7402 cells [4] = assay: Mitochondrial membrane potential assay (JC-1); format: cell-based, human; conditions: 48 h, control 3.28%
# Experimental: […] The percentage of cells with healthy or collapsed mitochondrial membrane potentials was monitored by flow cytometry analysis.
# Figure 6 Effect of 10f on the mitochondrial membrane potentials of Bel-7402 cells: Bel-7402 cells were incubated with the indicated concentrations of 10f for 48 h prior to staining with JC-1. […] In each plot the first value is in the upper right quadrant and the second in the lower right quadrant.
# [5] = system: apoptosis-related proteins in Bel-7402 cells; assay: Western blot of apoptosis-related proteins; format: cell-based, human; conditions: 10f 1.0, 1.5 and 2.0 μM, 48 h, concentration-dependent
# Experimental: Bel-7402 cells were incubated in triplicate with different doses (1.0, 1.5 and 2.0 μM) of 10f for 48 h. After the protein concentrations were determined, individual cell lysates were separated by sodium dodecyl sulfate polyacrylamide gel electrophoresis (10% gel, SDS-PAGE) and transferred onto nitrocellulose membranes. After being blocked with 5% fat-free milk, the target proteins in the membranes were probed with monoclonal anti-Bax (KGA714), anti-Bcl2 (KGA715), anti-caspase 3 (KGA717), anti-caspase 9 (KGA720), anti-cyto C (KGA723), and anti-β-actin antibodies (KGA731, KeyGEN Biotech, Nanjing, China), respectively. The relative levels of each signaling event to control β-actin were determined by densimetric scanning.
# Figure 7 Western blotting of 10f on the expression of apoptosis-related proteins in Bel-7402 cells. 1: negative control; 2: 2.0 μM; 3: 1.5 μM; 4: 1.0 μM.
smiles,measurement,setting,value
C=C1C(=O)C23C(=O)OC4CCC(C)(C)C5C(=O)OCC45C2CCC1C3OC(=O)c1ccccc1C(=O)OCCCOc1no[n+]([O-])c1S(=O)(=O)c1ccccc1 (stereo not shown) [Compound 10f],IC50,"Bel-7402 cells [1]; Homo sapiens, Bel-7402, MTT, 72 h, mean ± S.D. of three experiments",810 ± 60 nM
same,"fold stronger than 1, Bel-7402",Bel-7402 cells [1]; IC50 compared with 1,8.2 fold
same,"fold stronger than 9, Bel-7402",Bel-7402 cells [1]; IC50 compared with 9,18.7 fold
same,IC50,"L-02 normal liver cells; MTT, 72 h, mean ± S.D. of three experiments, read-out: antiproliferative activity IC50, L-02",29900 ± 1400 nM
same,SI (selectivity index),L-02 normal liver cells; selectivity between tumor and normal liver cells,36.9
same,IC50,"K562 cells; Homo sapiens, K562, MTT, 72 h, mean ± S.D. of three experiments",1730 ± 40 nM
same,"fold stronger than 1, K562",K562 cells; IC50 compared with 1,1.8 fold
same,IC50,"MGC-803 cells; Homo sapiens, MGC-803, MTT, 72 h, mean ± S.D. of three experiments",1180 ± 100 nM
same,"fold stronger than 1, MGC-803",MGC-803 cells; IC50 compared with 1,3.8 fold
same,"fold stronger than 9, MGC-803",MGC-803 cells; IC50 compared with 9,3.9 fold
same,IC50,"CaEs-17 cells; Homo sapiens, CaEs17, MTT, 72 h, mean ± S.D. of three experiments",3770 ± 300 nM
same,"fold stronger than 1, CaEs-17",CaEs-17 cells; IC50 compared with 1,1.9 fold
same,"fold stronger than 9, CaEs-17",CaEs-17 cells; IC50 compared with 9,5.3 fold
same,G2 phase cells,Bel-7402 cells [2]; 10f 1.0 μM,17.32%
same,cells at the S phase,Bel-7402 cells [2]; 10f 1.0 μM,40.27%
same,G2 phase cells,Bel-7402 cells [2]; 10f 1.5 μM,8.79%
same,cells at the S phase,Bel-7402 cells [2]; 10f 1.5 μM,48.11%
same,G2 phase cells,Bel-7402 cells [2]; 10f 2.0 μM,6.02%
same,cells at the S phase,Bel-7402 cells [2]; 10f 2.0 μM,53.34%
same,apoptotic cell rates (early and late),Bel-7402 cells [3]; 10f 1.0 μM,23.41%
same,apoptotic cell rates (early and late),Bel-7402 cells [3]; 10f 1.5 μM,38.32%
same,apoptotic cell rates (early and late),Bel-7402 cells [3]; 10f 2.0 μM,58.80%
same,cells with collapsed mitochondrial membrane potentials,Bel-7402 cells [4]; 10f 0.5 μM,17.76%
same,cells with collapsed mitochondrial membrane potentials,Bel-7402 cells [4]; 10f 1.5 μM,33.44%
same,cells with collapsed mitochondrial membrane potentials,Bel-7402 cells [4]; 10f 2.0 μM,47.63%
same,anti-apoptotic Bcl-2 expression,[5],downregulation
same,"expression of proapoptotic caspase-3, -8, -9, Bax, FAS, and cytochrome c",[5],upregulation
same,melting point,,151 to 154 °C
